Measurements from patent US20040248867A1, “Novel anti-inflammatory 17α-heterocyclic-esters of 17βcarbothioate androstane derivatives” (priority 2001, published 2004).

These molecules were tested on progesterone receptor (assay: Screen for progesterone receptor activity (T47D alkaline phosphatase); selectivity versus glucocorticoid receptor). Conditions: further experiments (additional data); ED50 at progesterone receptor divided by ED50 at glucocorticoid receptor.
Format: cell-based, human
Experimental: The human breast cancer cell line T47D has been reported to upregulate an endogenous alkaline phosphatase in response to progestins (Di Lorenzo et al., Cancer Research (1991) 51, 4470-4475. T47D cells were seeded into 96 well plates at a density of 1×10^5 cells per well and grown overnight at 37° C. Steroids were dissolved in DMSO, added to the cells (final DMSO concentration 0.7%), and incubated for 24 hours at 37° C. The cells were then washed with PBS and lysed with RIPA buffer (1% IGEPAL, 0.5% Na deoxycholate, 0.1% SDS in phosphate buffered saline). Alkaline phosphatase activity was measured spectrophotometrically (405 nm) using p-nitrophenylphosphate (1.5 mg/ml) as a substrate dissolved in 1M diethanolamine, 0.28M NaCl, 0.5 mM MgCl2. Dose response curves were constructed from which EC50 values were estimated.
Compounds were tested for progesterone activity in accordance with the above screen and the selectivity was determined by dividing the ED50 at the progesterone receptor by the ED50 at the glucocorticoid receptor.

Question: How did the Selectivity turn out when `CC1CC2C3CC(F)C4=CC(=O)C=CC4(C)C3(F)C(O)CC2(C)C1(OC(=O)C1(C)CCCS1)C(=O)SCF` (stereo not drawn) [Example 13B, 6α,9α-Difluoro-11β-hydroxy-16α-methyl-3-oxo-17α-(2-methyl-tetrahydrothiophen-2-ylcarbonyl)oxy-androsta-1,4-diene-17β-carbothioic acid S-fluoromethyl ester] was run?
Answer: Its Selectivity is 1955.

Question: With `CC1CC2C3CC(F)C4=CC(=O)C=CC4(C)C3(F)C(O)CC2(C)C1(OC(=O)C1(C)CCCO1)C(=O)SCF` (stereo not drawn) [Example 8B, 6α,9α-Difluoro-11β-hydroxy-16α-methyl-3-oxo-17-(2-methyl-tetrahydrofuran-2-ylcarbonyl)oxy-androsta-1,4-diene-17β-carbothioic acid S-fluoromethyl ester] as the molecule, how does the Selectivity read?
Answer: The Selectivity was 63855.

Question: Which Selectivity does the source give for `CC1CC2C3CC(F)C4=CC(=O)C=CC4(C)C3(F)C(O)CC2(C)C1(OC(=O)C1(C)OCCO1)C(=O)SCF` (stereo not drawn) [Example 11, 6α,9α-Difluoro-11β-hydroxy-16α-methyl-17α-(2-methyl-1,3-dioxolan-2-ylcarbonyl)oxy-3-oxo-androsta-1,4-diene-17β-carbothioic acid S-fluoromethyl ester] here?
Answer: Its Selectivity is 1620.

Question: With `CC1CC2C3CC(F)C4=CC(=O)C=CC4(C)C3(F)C(O)CC2(C)C1(OC(=O)C1(C)CCCO1)C(=O)SCF` (stereo not drawn) [Example 8A, 6α,9α-Difluoro-11β-hydroxy-16α-methyl-3-oxo-17-(2-methyl-tetrahydrofuran-2-ylcarbonyl)oxy-androsta-1,4-diene-17β-carbothioic acid S-fluoromethyl ester] as the molecule, how does the Selectivity read?
Answer: The Selectivity was 49425.

Question: For `CC1CC2C3CC(F)C4=CC(=O)C=CC4(C)C3(F)C(O)CC2(C)C1(OC(=O)C1(C)CCCS1)C(=O)SCF` (stereo not drawn) [Example 13A, 6α,9α-Difluoro-11β-hydroxy-16α-methyl-3-oxo-17α-(2-methyl-tetrahydrothiophen-2-ylcarbonyl)oxy-androsta-1,4-diene-17β-carbothioic acid S-fluoromethyl ester], which Selectivity is on record?
Answer: Its Selectivity is 2650.

Question: Which Selectivity does the source give for `CC1CC2C3CC(F)C4=CC(=O)C=CC4(C)C3(F)C(O)CC2(C)C1(OC(=O)C1SCCS1)C(=O)SCF` (stereo not drawn) [Example 4, 6α,9α-Difluoro-17α-(1,3-dithiolan-2-ylcarbonyl)oxy-11β-hydroxy-16α-methyl-3-oxo-androsta-1,4-diene-17β-carbothioic acid S-fluoromethyl ester] here?
Answer: Its Selectivity is 1192.

Question: `CCC(=O)O[C@]1(C(=O)SCF)[C@H](C)C[C@H]2[C@@H]3C[C@H](F)C4=CC(=O)C=C[C@]4(C)[C@@]3(F)[C@@H](O)C[C@@]21C` [Fluticasone propionate, 6α,9α-Difluoro-17α-(1-oxopropoxy)-11β-hydroxy-16α-methyl-3-oxo-androsta-1,4-diene-17β-carbothioic acid S-fluoromethyl ester, reference compound] was tested. Which Selectivity did it give?
Answer: Its Selectivity is 82.

Question: With `CC1CC2C3CC(F)C4=CC(=O)C=CC4(C)C3(F)C(O)CC2(C)C1(OC(=O)C1CSC1)C(=O)SCF` (stereo not drawn) [Example 6, 6α,9α-Difluoro-11β-hydroxy-16α-methyl-3-oxo-17α-(thietan-3-ylcarbonyl)oxy-androsta-1,4-diene-17β-carbothioic acid S-fluoromethyl ester] as the molecule, how does the Selectivity read?
Answer: Its Selectivity is 500.

Question: With `CC1CC2C3CC(F)C4=CC(=O)C=CC4(C)C3(F)C(O)CC2(C)C1(OC(=O)C1CCCO1)C(=O)SCF` (stereo not drawn) [Example 2, 6α,9α-Difluoro-11β-hydroxy-16α-methyl-3-oxo-17α-(tetrahydrofuran-2R-ylcarbonyl)oxy-androsta-1,4-diene-17β-carbothioic acid S-fluoromethyl ester] as the molecule, how does the Selectivity read?
Answer: The Selectivity was 1099.
